# Assay results reported in article PMC3206071, “Characterization of a Truncated Metabotropic Glutamate Receptor in a Primitive Metazoan, the Parasitic Flatworm Schistosoma mansoni” (PLoS ONE, 2011).
# Legend:
# [1] = biological target: T1, SmGBP (S. mansoni glutamate-binding protein) (Schistosoma mansoni, UniProt E2IFW0); assay: [3H]glutamate radioligand competition at […], purified SmGBP-His
# [2] = biological target: T1, SmGBP (S. mansoni glutamate-binding protein); assay: as above; conditions: read-out: % inhibition at 10 mM
# [3] = biological target: T1, SmGBP (S. mansoni glutamate-binding protein); assay: [3H]glutamate radioligand competition with unlabelled glutamate, PEG precipitation, purified SmGBP-His
# T1 sequence (E2IFW0 entry or part of it): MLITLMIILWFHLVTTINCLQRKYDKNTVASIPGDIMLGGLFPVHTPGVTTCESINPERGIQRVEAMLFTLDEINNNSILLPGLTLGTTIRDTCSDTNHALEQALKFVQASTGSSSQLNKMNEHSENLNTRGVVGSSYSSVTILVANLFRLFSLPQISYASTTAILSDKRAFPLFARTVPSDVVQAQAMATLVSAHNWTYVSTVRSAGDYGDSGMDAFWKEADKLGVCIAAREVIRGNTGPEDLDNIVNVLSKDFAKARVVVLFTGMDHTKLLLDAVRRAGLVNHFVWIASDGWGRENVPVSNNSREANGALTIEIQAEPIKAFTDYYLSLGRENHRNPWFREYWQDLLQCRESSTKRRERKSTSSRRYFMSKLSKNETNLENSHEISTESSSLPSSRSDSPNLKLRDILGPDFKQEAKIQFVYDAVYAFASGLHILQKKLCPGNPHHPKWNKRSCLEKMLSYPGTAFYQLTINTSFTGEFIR
inhibition at 10000 µM [2] [%],Compound,"[3H]glutamate radioligand competition at 10 mM, purified SmGBP-His [1]",also measured
,"N[C@H](C(=O)O)c1cc(O)cc(O)c1 [(S)-3,5-DHPG, (S)-3,5-Dihydroxyphenylglycine]","also recognized some glutamatergic agents, for example, agonists DHPG and AP4 and the antagonist, MCPG",
,"C[C@@](N)(C(=O)O)c1ccc(C(=O)O)cc1 [(S)-MCPG, (S)-a-Methyl-4-carboxyphenylglycine]","able to compete with [^3H]glutamate, AP4 (mGluR III agonist) and S)-MCPG (mGluRs I/II antagonist) being the strongest",
,"N[C@@H](CCP(=O)(O)O)C(=O)O [L-AP4, L-(+)-2-Amino-4-phosphonobutyric acid]","able to compete with [^3H]glutamate, AP4 (mGluR III agonist) and S)-MCPG (mGluRs I/II antagonist) being the strongest",
84,N[C@@H](CC(=O)O)C(=O)O [aspartate],,
,N[C@@H](CCC(=O)O)C(=O)O [glutamate],,IC50 [3]: 300 ± 50 nM
77,NC(=O)CC[C@H](N)C(=O)O [glutamine],,
